Key:
[1] = test system: Botryotinia fuckeliana (Botrytis cinerea); assay: Botryotinia fuckeliana (Botrytis cinerea) / liquid culture (gray mould); format: cell-based; conditions: Vogels broth, 24° C., 3-4 days after application, compared to untreated checks, read-out: disease control (inhibition of growth, photometric)
Description: (§1) Botryotinia fuckeliana (Botrytis cinerea)/Liquid Culture (Gray Mould) Conidia of the fungus from cryogenic storage are directly mixed into nutrient broth (Vogels broth). After placing a (DMSO) solution of test compound into a microtiter plate (96-well format), the nutrient broth containing the fungal spores is added. The test plates are incubated at 24° C. and the inhibition of growth is determined photometrically 3-4 days after application.

[2] = test system: Glomerella Lagenarium (Colletotrichum lagenarium); assay: Glomerella lagenarium (Colletotrichum lagenarium) / liquid culture (anthracnose); format: cell-based; conditions: Colletotrichum orbiculare, PDB potato dextrose broth, 24° C., 3 to 4 days after application, compared to untreated checks, read-out: disease control (inhibition of growth, photometric)
Description: as §1, with “Glomerella Lagenarium (Colletotrichum lagenarium)/Liquid” for “Botryotinia fuckeliana (Botrytis cinerea)/Liquid”, “(Anthracnose)” for “(Gray Mould)”, “(PDB potato dextrose” for “(Vogels”, “measured” for “determined”, “3 to 4” for “3-4”

[3] = test system: Mycosphaerella arachidis (Cercospora arachidicola); assay: Mycosphaerella arachidis (Cercospora arachidicola) / liquid culture (early leaf spot); format: cell-based; conditions: PDB potato dextrose broth, 24° C., 4-5 days after application, compared to untreated checks, read-out: disease control (inhibition of growth, photometric)
Description: as §1, with “Mycosphaerella arachidis (Cercospora arachidicola)/Liquid” for “Botryotinia fuckeliana (Botrytis cinerea)/Liquid”, “(Early Leaf Spot)” for “(Gray Mould)”, “(PDB potato dextrose” for “(Vogels”, “4-5” for “3-4”

[4] = test system: Mycosphaerella Graminicola (Septoria tritici); assay: Mycosphaerella graminicola (Septoria tritici) / liquid culture (Septoria blotch); format: cell-based; conditions: Zymoseptoria tritici, PDB potato dextrose broth, 24° C., 4 to 5 days after application, compared to untreated checks, read-out: disease control (inhibition of growth, photometric)
Description: as §1, with “Mycosphaerella Graminicola (Septoria tritici)/Liquid” for “Botryotinia fuckeliana (Botrytis cinerea)/Liquid”, “(Septoria Blotch)” for “(Gray Mould)”, “(PDB potato dextrose” for “(Vogels”, “4 to 5” for “3-4”

[5] = test system: Phaeosphaeria nodorum (Septoria nodorum); assay: Phaeosphaeria nodorum (Septoria nodorum) / wheat / leaf disc preventative (glume blotch); format: in vivo; conditions: Parastagonospora nodorum, foliar, 120 h, wheat leaf segments cv. Kanzler, inoculated 2 days after application, assessed 5-7 days after application, compared to untreated, read-out: disease control
Description: Phaeosphaeria nodorum (Septoria nodorum)/Wheat/Leaf Disc Preventative (Glume Blotch) Wheat leaf segments cv. Kanzler are placed on agar in a multiwell plate (24-well format) and sprayed with the formulated test compound diluted in water. The leaf disks are inoculated with a spore suspension of the fungus 2 days after application. The inoculated test leaf disks are incubated at 20° C. and 75% rh under a light regime of 12 h light/12 h darkness in a climate cabinet and the activity of a compound is assessed as percent disease control compared to untreated when an appropriate level of disease damage appears in untreated check leaf disks (5-7 days after application).

[6] = test system: Puccinia Recondite f. Sp. Tritici; assay: Puccinia recondita f. sp. tritici / wheat / leaf disc preventative (brown rust); format: in vivo; conditions: foliar, wheat leaf segments cv. Kanzler, inoculated 1 day after application, assessed 7-9 days after application, compared to untreated, read-out: disease control
Description: Puccinia Recondite f. Sp. Tritici/Wheat/Leaf Disc Preventative (Brown Rust) Wheat leaf segments cv. Kanzler are placed on agar in multiwell plates (24-well format) and sprayed with the formulated test compound diluted in water. The leaf disks are inoculated with a spore suspension of the fungus 1 day after application. The inoculated leaf segments are incubated at 19° C. and 75% rh under a light regime of 12 h light/12 h darkness in a climate cabinet and the activity of a compound is assessed as percent disease control compared to untreated when an appropriate level of disease damage appears in untreated check leaf segments (7-9 days after application).

[7] = test system: Monographella nivalis (Microdochium nivale); assay: Monographella nivalis (Microdochium nivale) / liquid culture (foot rot cereals); format: cell-based; conditions: PDB potato dextrose broth, 24° C., 4-5 days after application, compared to untreated checks, read-out: disease control (inhibition of growth, photometric)
Description: as §1, with “Monographella nivalis (Microdochium nivale)/Liquid” for “Botryotinia fuckeliana (Botrytis cinerea)/Liquid”, “(Foot Rot Cereals)” for “(Gray Mould)”, “(PDB potato dextrose” for “(Vogels”, “4-5” for “3-4”

[8] = test system: Magnaporthe grisea (Pyricularia oryzae); assay: whole plant or invertebrate; format: in vivo; conditions: foliar, read-out: disease control
[9] = test system: Blumeria graminis f. Sp. Tritici (Erysiphe Graminis f. Sp. Tritici); assay: Blumeria graminis f. sp. tritici / wheat / leaf disc preventative (powdery mildew on wheat); format: in vivo; conditions: 200 ppm; wheat leaf segments cv. Kanzler, inoculated 1 day after application, assessed 6-8 days after application, compared to untreated
Description: Blumeria graminis f. Sp. Tritici (Erysiphe Graminis f. Sp. Tritici)/Wheat/Leaf Disc Preventative (Powdery Mildew on Wheat)
Wheat leaf segments cv. Kanzler are placed on agar in a multiwell plate (24-well format) and sprayed with the test compound formulated with DMSO and Tween20 and diluted in water. The leaf disks are inoculated by shaking powdery mildew infected plants above the test plates 1 day after application. The inoculated leaf disks are incubated at 20° C. and 60% rh under a light regime of 24 h darkness followed by 12 h light/12 h darkness in a climate chamber and the activity of a compound is assessed as percent disease control compared to untreated when an appropriate level of disease damage appears on untreated check leaf segments (6-8 days after application).

Alternaria solani = Alternaria solani / tomato / leaf disc (early blight); format: in vivo; conditions: 200 ppm; tomato leaf disks cv. Baby, inoculated 2 days after application, assessed 5-7 days after application, compared to untreated
Description: Alternaria solani/Tomato/Leaf Disc (Early Blight) Tomato leaf disks cv. Baby are placed on agar in multiwell plates (24-well format) and sprayed with the formulated test compound diluted in water. The leaf disks are inoculated with a spore suspension of the fungus 2 days after application. The inoculated leaf disks are incubated at 23° C./21° C.

SMILES | inhibition at 200 ppm [1] [%] | inhibition at 200 ppm [2] [%] | inhibition at 200 ppm [3] [%] | inhibition at 200 ppm [4] [%] | pest or weed control at 200 ppm [5] [%] | pest or weed control at 200 ppm [6] [%] | inhibition at 200 ppm [7] [%] | pest or weed control at 200 ppm [8] [%] | disease control [9] | control of Alternaria solani (Alternaria solani)
COc1ccc(C(c2ccc(OC)cc2)N(C)OC(=O)[C@H](C)NC(=O)c2nccc(OC)c2O)cc1 [I.ab.01, [bis(4-methoxy phenyl)methyl-methyl-amino] (2S)-2-[(3-hydroxy-4-methoxy-pyridine-2-carbonyl)amino]propanoate] | ≥ 80 | ≥ 80 | ≥ 80 | ≥ 80 | ≥ 80 | ≥ 80 |  |  |  | 
CCOc1ccc(C(c2ccc(OCC)cc2)N(C)OC(=O)[C@H](C)NC(=O)c2nccc(OC)c2O)cc1 [I.ac.01, [bis(4-ethoxy phenyl)methyl-methyl-amino] (2S)-2-[(3-hydroxy-4-methoxy-pyridine-2-carbonyl)amino]propanoate] | ≥ 80 | ≥ 80 | ≥ 80 | ≥ 80 | ≥ 80 | ≥ 80 | ≥ 80 |  |  | 
COc1ccnc(C(=O)N[C@@H](C)C(=O)ON(C)C(c2ccccc2)c2ccccc2)c1O [I.m.01, [benzhydryl(methyl)amino] (2S)-2-[(3-hydroxy-4-methoxy-pyridine-2-carbonyl)amino]propanoate] | ≥ 80 | ≥ 80 | ≥ 80 | ≥ 80 | ≥ 80 | ≥ 80 | ≥ 80 | ≥ 80 |  | 
CCC(c1ccccc1)(c1ccccc1)N(C)OC(=O)[C@H](C)NC(=O)c1nccc(OC)c1O [I.m.03, [1,1-diphenylpropyl (methyl)amino] (2S)-2-[(3-hydroxy-4-methoxy-pyridine-2-carbonyl)amino]propanoate] | ≥ 80 |  | ≥ 80 | ≥ 80 | ≥ 80 |  | ≥ 80 |  |  | 
COc1ccnc(C(=O)N[C@@H](C)C(=O)ON(C)C(c2ccccc2)c2ccccc2)c1OC(C)=O [I.m.13, [benzhydryl(methyl)amino] (2S)-2-[(3-acetoxy-4-methoxy-pyridine-2-carbonyl)amino]propanoate] |  |  | ≥ 80 | ≥ 80 | ≥ 80 | ≥ 80 |  | ≥ 80 | at least 80% | 
COc1ccnc(C(=O)N[C@@H](C)C(=O)ON(C)C(C)(c2ccccc2)c2ccc(Cl)cc2)c1O (stereo partly drawn) [I.o.02, [[1-(4-chlorophenyl)-1-phenyl-ethyl]-methyl-amino] (2S)-2-[(3-hydroxy-4-methoxy-pyridine-2-carbonyl)amino]propanoate] |  |  | ≥ 80 | ≥ 80 | ≥ 80 | ≥ 80 |  | ≥ 80 |  | at least 80%
COc1ccnc(C(=O)N[C@@H](C)C(=O)ON(C)C(C)(c2ccc(F)cc2)c2ccc(F)cc2)c1O [I.s.02, [1,1-bis(4-fluorophenyl)ethyl-methyl-amino] (2S)-2-[(3-hydroxy-4-methoxy-pyridine-2-carbonyl)amino] propanoate] | ≥ 80 | ≥ 80 | ≥ 80 | ≥ 80 | ≥ 80 |  |  | ≥ 80 |  | 
COc1ccnc(C(=O)N[C@@H](C)C(=O)ON(C)C(c2ccc(F)cc2)c2ccc(Cl)cc2)c1O (stereo partly drawn) [I.t.01, [[(4-chlorophenyl)-(4-fluorophenyl)methyl]-methyl-amino] (2S)-2-[(3-hydroxy-4-methoxy-pyridine-2-carbonyl)amino] propanoate] | ≥ 80 | ≥ 80 | ≥ 80 |  | ≥ 80 | ≥ 80 |  |  |  | 
COc1ccnc(C(=O)N[C@@H](C)C(=O)ON(C)C(C)(c2ccc(Cl)cc2)c2ccc(Cl)cc2)c1O [I.u.02, [1,1-bis(4-chlorophenyl)ethyl-methyl-amino] (2S)-2-[(3-hydroxy-4-methoxy-pyridine-2-carbonyl)amino]propanoate] | ≥ 80 | ≥ 80 | ≥ 80 | ≥ 80 | ≥ 80 |  | ≥ 80 |  |  | 
COc1ccnc(C(=O)N[C@@H](C)C(=O)ON(C)C(C)(c2ccc(Cl)cc2)c2ccc(Cl)cc2)c1OC(C)=O [I.u.14, [1,1-bis(4-chlorophenyl)ethyl-methyl-amino] (2S)-2-[(3-acetoxy-4-methoxy-pyridine-2-carbonyl)amino]propanoate] | ≥ 80 | ≥ 80 | ≥ 80 | ≥ 80 | ≥ 80 | ≥ 80 | ≥ 80 | ≥ 80 |  | 
COc1ccnc(C(=O)N[C@@H](C)C(=O)ON(C)C(C)(c2ccc(Cl)cc2)c2ccc(Cl)cc2)c1OCOC(=O)C(C)C [I.u.26, [2-[[(1S)-2-[1,1-bis(4-chlorophenyl)ethyl-methyl-amino]oxy-1-methyl-2-oxo-ethyl]carbamoyl]-4-methoxy-3-pyridyl] oxymethyl 2-methylpropanoate] | ≥ 80 |  | ≥ 80 | ≥ 80 |  | ≥ 80 | ≥ 80 |  |  | 
COc1ccnc(C(=O)N[C@@H](C)C(=O)ON(C)C(c2ccc(C)cc2)c2ccc(C)cc2)c1O [I.v.01, [bis-p-tolylmethyl (methyl)amino] (2S)-2-[(3-hydroxy-4-methoxy-pyridine-2-carbonyl)amino]propanoate] | ≥ 80 | ≥ 80 | ≥ 80 | ≥ 80 |  | ≥ 80 | ≥ 80 |  |  | 
